PubChem BioAssay (NCI)
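Exposure lasted 48 hours, with cells grown in 96-well plates and compounds tested at five concentrations. GI50 is the concentration that inhibits growth by half. TGI denotes the concentration required for complete inhibition of growth.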

What was measured:
Assay in all cases: DTP human tumour cell line panel, 48 h
A498 renal = system: A498 renal
NCI-H460 lung = system: NCI-H460 lung
SNB-75 CNS = system: SNB-75 CNS
A549 NSCLC = system: A549 NSCLC
DU-145 prostate = system: DU-145 prostate
M14 melanoma = system: M14 melanoma
SK-OV-3 ovarian = system: SK-OV-3 ovarian
HCC-2998 colon = system: HCC-2998 colon
NCI-H23 lung = system: NCI-H23 lung
HL-60(TB) leukemia = system: HL-60(TB) leukemia
SN12C renal = system: SN12C renal
MALME-3M melanoma = system: MALME-3M melanoma
T-47D breast = system: T-47D breast
SF-295 CNS = system: SF-295 CNS
HOP-62 NSCLC = system: HOP-62 NSCLC
CCRF-CEM leukemia = system: CCRF-CEM leukemia
SK-MEL-28 melanoma = system: SK-MEL-28 melanoma
SF-268 CNS = system: SF-268 CNS
RXF 393 renal = system: RXF 393 renal
SK-MEL-2 melanoma = system: SK-MEL-2 melanoma
SW-620 colon = system: SW-620 colon
K-562 leukemia = system: K-562 leukemia
SK-MEL-5 melanoma = system: SK-MEL-5 melanoma
HCT-15 colon = system: HCT-15 colon
HT29 colon = system: HT29 colon
HCT-116 colon = system: HCT-116 colon
CAKI-1 renal = system: CAKI-1 renal
UACC-62 melanoma = system: UACC-62 melanoma
786-0 renal = system: 786-0 renal
RPMI-8226 leukemia = system: RPMI-8226 leukemia
U251 CNS = system: U251 CNS
OVCAR-3 ovarian = system: OVCAR-3 ovarian
MDA-MB-231 breast = system: MDA-MB-231 breast
NCI-H522 lung = system: NCI-H522 lung
OVCAR-5 ovarian = system: OVCAR-5 ovarian
MCF7 breast = system: MCF7 breast
UACC-257 melanoma = system: UACC-257 melanoma
MDA-MB-468 breast = system: MDA-MB-468 breast
COLO 205 colon = system: COLO 205 colon
ACHN renal = system: ACHN renal
BT-549 breast = system: BT-549 breast
MOLT-4 leukemia = system: MOLT-4 leukemia
LOX IMVI melanoma = system: LOX IMVI melanoma
NCI/ADR-RES ovarian = system: NCI/ADR-RES ovarian
HS 578T breast = system: HS 578T breast
NCI-H226 lung = system: NCI-H226 lung
MDA-MB-435 = system: MDA-MB-435
EKVX NSCLC = system: EKVX NSCLC
UO-31 renal = system: UO-31 renal
PC-3 prostate = system: PC-3 prostate
OVCAR-4 ovarian = system: OVCAR-4 ovarian
OVCAR-8 ovarian = system: OVCAR-8 ovarian
SNB-19 CNS = system: SNB-19 CNS
IGROV1 ovarian = system: IGROV1 ovarian
TK-10 renal = system: TK-10 renal
KM12 colon = system: KM12 colon
SF-539 CNS = system: SF-539 CNS
HOP-92 NSCLC = system: HOP-92 NSCLC

CN(C)CCOc1ccc(C(=O)C2[C@H](c3ccc(Cl)cc3)[C@@H](c3ccccc3)NC23C(=O)Nc2ccccc23)cc1 (stereo partly specified)
GI50 (A498 renal): > 18.5 µM
TGI (A498 renal): > 18.5 µM
GI50 (NCI-H460 lung): 3.29 µM
TGI (NCI-H460 lung): 6.17 µM
GI50 (SNB-75 CNS): 4.58 µM
TGI (SNB-75 CNS): > 18.5 µM
GI50 (A549 NSCLC): 5.95 µM
TGI (A549 NSCLC): > 18.5 µM
GI50 (DU-145 prostate): 5.78 µM
TGI (DU-145 prostate): > 18.5 µM
GI50 (M14 melanoma): 2.89 µM
TGI (M14 melanoma): 5.69 µM
GI50 (SK-OV-3 ovarian): > 18.5 µM
TGI (SK-OV-3 ovarian): > 18.5 µM
GI50 (HCC-2998 colon): 3.07 µM
TGI (HCC-2998 colon): 5.76 µM
GI50 (NCI-H23 lung): 3.95 µM
TGI (NCI-H23 lung): 9.94 µM
GI50 (HL-60(TB) leukemia): 4.11 µM
TGI (HL-60(TB) leukemia): 11.2 µM
GI50 (SN12C renal): 10.6 µM
TGI (SN12C renal): > 18.5 µM
GI50 (MALME-3M melanoma): 2.92 µM
TGI (MALME-3M melanoma): 5.48 µM
GI50 (T-47D breast): 9.41 µM
TGI (T-47D breast): > 18.5 µM
GI50 (SF-295 CNS): 3.22 µM
TGI (SF-295 CNS): 6.52 µM
GI50 (HOP-62 NSCLC): 6.6 µM
TGI (HOP-62 NSCLC): > 18.5 µM
GI50 (CCRF-CEM leukemia): 3.98 µM
TGI (CCRF-CEM leukemia): 13.2 µM
GI50 (SK-MEL-28 melanoma): 3.05 µM
TGI (SK-MEL-28 melanoma): 5.62 µM
GI50 (SF-268 CNS): 9.62 µM
TGI (SF-268 CNS): > 18.5 µM
GI50 (RXF 393 renal): 2.88 µM
TGI (RXF 393 renal): 12 µM
GI50 (SK-MEL-2 melanoma): 3.6 µM
TGI (SK-MEL-2 melanoma): 7.11 µM
GI50 (SW-620 colon): 3.13 µM
TGI (SW-620 colon): 6.05 µM
GI50 (K-562 leukemia): 3.86 µM
TGI (K-562 leukemia): 11.7 µM
GI50 (SK-MEL-5 melanoma): 3.11 µM
TGI (SK-MEL-5 melanoma): 5.99 µM
GI50 (HCT-15 colon): 3.68 µM
TGI (HCT-15 colon): 8.25 µM
GI50 (HT29 colon): 3.32 µM
TGI (HT29 colon): 7.13 µM
GI50 (HCT-116 colon): 2.96 µM
TGI (HCT-116 colon): 5.51 µM
GI50 (CAKI-1 renal): 4.5 µM
TGI (CAKI-1 renal): > 18.5 µM
GI50 (UACC-62 melanoma): 2.88 µM
TGI (UACC-62 melanoma): 5.59 µM
GI50 (786-0 renal): 3.14 µM
TGI (786-0 renal): 5.83 µM
GI50 (RPMI-8226 leukemia): 3.95 µM
TGI (RPMI-8226 leukemia): 11.3 µM
GI50 (U251 CNS): 3.13 µM
TGI (U251 CNS): 6.07 µM
GI50 (OVCAR-3 ovarian): 3.41 µM
TGI (OVCAR-3 ovarian): 7.55 µM
GI50 (MDA-MB-231 breast): 3.55 µM
TGI (MDA-MB-231 breast): 10.2 µM
GI50 (NCI-H522 lung): 7.52 µM
TGI (NCI-H522 lung): > 18.5 µM
GI50 (OVCAR-5 ovarian): 4.41 µM
TGI (OVCAR-5 ovarian): > 18.5 µM
GI50 (MCF7 breast): 3.18 µM
TGI (MCF7 breast): 6.32 µM
GI50 (UACC-257 melanoma): 3.38 µM
TGI (UACC-257 melanoma): 7.54 µM
GI50 (MDA-MB-468 breast): 2.91 µM
TGI (MDA-MB-468 breast): 5.74 µM
GI50 (COLO 205 colon): 3.58 µM
TGI (COLO 205 colon): 6.93 µM
GI50 (ACHN renal): 4.33 µM
TGI (ACHN renal): 11.7 µM
GI50 (BT-549 breast): > 18.5 µM
TGI (BT-549 breast): > 18.5 µM
GI50 (MOLT-4 leukemia): 3.3 µM
TGI (MOLT-4 leukemia): 8.62 µM
GI50 (LOX IMVI melanoma): 2.62 µM
TGI (LOX IMVI melanoma): 5.02 µM
GI50 (NCI/ADR-RES ovarian): 5.9 µM
TGI (NCI/ADR-RES ovarian): > 18.5 µM
GI50 (HS 578T breast): 3.88 µM
TGI (HS 578T breast): > 18.5 µM
GI50 (NCI-H226 lung): 7.97 µM
TGI (NCI-H226 lung): > 18.5 µM
GI50 (MDA-MB-435): 3.04 µM
TGI (MDA-MB-435): 5.99 µM
GI50 (EKVX NSCLC): 3.03 µM
TGI (EKVX NSCLC): 6.21 µM
GI50 (UO-31 renal): 6.9 µM
TGI (UO-31 renal): > 18.5 µM
GI50 (PC-3 prostate): 3.77 µM
TGI (PC-3 prostate): 11.2 µM
GI50 (OVCAR-4 ovarian): 8.79 µM
TGI (OVCAR-4 ovarian): > 18.5 µM
GI50 (OVCAR-8 ovarian): 4.56 µM
TGI (OVCAR-8 ovarian): 11 µM
GI50 (SNB-19 CNS): 8.07 µM
TGI (SNB-19 CNS): > 18.5 µM
GI50 (IGROV1 ovarian): 10.4 µM
TGI (IGROV1 ovarian): > 18.5 µM
GI50 (TK-10 renal): > 18.5 µM
TGI (TK-10 renal): > 18.5 µM
GI50 (KM12 colon): 3.56 µM
TGI (KM12 colon): 7.3 µM
GI50 (SF-539 CNS): 3.14 µM
TGI (SF-539 CNS): 6.01 µM
GI50 (HOP-92 NSCLC): 3.03 µM
TGI (HOP-92 NSCLC): 12.7 µM
